For test [1], the system named is TGF-β signaling (p-SMAD-3 (Ser423/425)). The experiment in a line: AlphaScreen SureFire SMAD3 (p-Ser423/425) assay, TGF-β-stimulated cells (TGF-β pSMAD (MPC-11)). Conditions: pSMAD3 readout, read-out: TGF-β (inhibition of TGF-β signaling. In kind it is cell-based. A general note: Bead proximity is the source of the signal in Alpha formats.
Test [2] deals with GDF8 signaling (p-SMAD-3 (Ser423/425)). The experiment in a line: AlphaScreen SureFire SMAD3 (p-Ser423/425) assay, GDF8-stimulated cells (GDF pSMAD (MPC11)). In kind it is cell-based. Conditions: pSMAD3 readout, read-out: GDF8 (inhibition of GDF8 signaling.
For test [3], the target named is HIS-TGF-βR1 T204D (Homo sapiens (Human), UniProt P36897, T204D). The experiment in a line: HTRF probe displacement assay with HIS-TGF-βR1 T204D. Conditions: read-out: TGFbr1 IC50; HTRF probe displacement, 1 nM HIS-TGF-βR1 T204D, 1 hour at room temperature. In general terms: TR-FRET usually uses a lanthanide donor and a delayed reading to cut background.
Test [4] concerns the target HIS-TGF-βR2 WT (Homo sapiens (Human), UniProt P37173). The experiment in a line: HTRF probe displacement assay with HIS-TGF-βR2 WT. The following applies: read-out: TGFBr2 IC50; HTRF probe displacement, 1 nM HIS-TGF-βR2 WT, 1 hour at room temperature.

Chain of HIS-TGF-βR1 T204D (P36897 34-503 T204D): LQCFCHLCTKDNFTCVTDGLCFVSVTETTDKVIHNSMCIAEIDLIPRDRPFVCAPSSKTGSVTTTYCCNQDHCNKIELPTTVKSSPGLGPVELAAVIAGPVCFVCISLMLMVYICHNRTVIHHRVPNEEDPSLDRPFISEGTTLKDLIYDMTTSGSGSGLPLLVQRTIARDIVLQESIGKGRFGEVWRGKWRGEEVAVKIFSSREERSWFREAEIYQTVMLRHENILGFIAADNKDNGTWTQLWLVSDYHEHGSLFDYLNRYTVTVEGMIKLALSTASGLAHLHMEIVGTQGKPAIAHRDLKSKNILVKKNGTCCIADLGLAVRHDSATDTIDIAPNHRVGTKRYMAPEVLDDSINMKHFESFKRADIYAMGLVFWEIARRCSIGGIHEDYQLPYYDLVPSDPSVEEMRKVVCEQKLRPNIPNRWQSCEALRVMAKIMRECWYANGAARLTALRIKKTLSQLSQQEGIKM
Chain of HIS-TGF-βR2 WT (P37173 23-567): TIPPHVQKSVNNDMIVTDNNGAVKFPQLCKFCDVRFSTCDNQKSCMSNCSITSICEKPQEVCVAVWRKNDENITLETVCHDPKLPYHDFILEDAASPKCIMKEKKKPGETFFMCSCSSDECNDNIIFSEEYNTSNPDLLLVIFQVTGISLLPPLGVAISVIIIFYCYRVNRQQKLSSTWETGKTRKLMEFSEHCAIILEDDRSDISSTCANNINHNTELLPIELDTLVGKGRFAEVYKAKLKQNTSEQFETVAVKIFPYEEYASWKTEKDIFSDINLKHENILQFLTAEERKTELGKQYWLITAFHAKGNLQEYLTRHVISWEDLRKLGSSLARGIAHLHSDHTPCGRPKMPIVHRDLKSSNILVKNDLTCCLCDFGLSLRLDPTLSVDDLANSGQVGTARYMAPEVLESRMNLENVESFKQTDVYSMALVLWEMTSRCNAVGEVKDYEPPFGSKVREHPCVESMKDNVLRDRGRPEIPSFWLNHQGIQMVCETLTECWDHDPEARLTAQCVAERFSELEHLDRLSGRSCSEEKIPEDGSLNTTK

Take `CCc1nc(-c2cc(C)cc(F)c2)c(-c2ccc3[nH]ncc3c2)[nH]1` [Compound 142, 5-(2-Ethyl-4-(3-fluoro-5-methylphenyl)-1H-imidazol-5-yl)-1H-indazole]: the results for the IC50 in test [1] and in test [2] were 4390 nM and 670 nM, respectively. For the molecule “5-(benzo[d]thiazol-6-yl)-4-(3-chlorophenyl)thiazol-2-amine [Compound 166]”, the IC50 in test [2] stood at 70.2 nM. Turning to `Cc1cc(-c2ncn(C)c2-c2ccc3cn[nH]c3c2)ccc1F` [Compound 5, 6-(4-(4-Fluoro-3-methylphenyl)-1-methyl-1H-imidazol-5-yl)-1H-indazole], the results for the IC50 in test [1] and in test [2] were 20 nM and 10 nM, respectively. The corresponding values for `Cc1cc(-c2ncn(C)c2-c2ccc3cn[nH]c3c2)ccc1F` [Compound 7, 6-(4-(4-Fluoro-3-methylphenyl)-1-methyl-1H-imidazol-5-yl)-1H-indazole] are 150 nM and 40 nM. For the molecule `CC(C)OC(=O)NCc1cnc2ccc(-c3c(-c4ccc(F)cc4)ncn3CC(F)F)nn12` [Example 201′, isopropyl ((6-(1-(2,2-difluoroethyl)-4-(4-fluorophenyl)-1H-imidazol-5-yl)imidazo[1,2-b]pyridazin-3-yl)methyl)carbamate], the IC50 is 5 nM in test [3] and over 15000 nM in test [4].

As to `N#Cc1cnc2ccc(-c3c(-c4ccc(F)cc4)ncn3[C@@H](CO)CC(F)(F)F)nn12` [28′, (R)-6-(4-(4-fluorophenyl)-1-(4,4,4-trifluoro-1-hydroxybutan-2-yl)-1H-imidazol-5-yl)imidazo[1,2-b]pyridazine-3-carbonitrile], the IC50 in test [3] was 1 nM; in test [4], over 15000 nM. The corresponding values for `NC(=O)c1cnc2ccc(-c3c(-c4ccc(F)cc4)nc4n3CCN(CC(F)F)C4)cn12` [Example 294′, 6-(7-(2,2-difluoroethyl)-2-(4-fluorophenyl)-5,6,7,8-tetrahydroimidazo[1,2-a]pyrazin-3-yl)imidazo[1,2-a]pyridine-3-carboxamide] are 27.2 nM and over 15000 nM.

For the origin of these results see patent publication US9884868B2, “TGF-beta inhibitors” (Rigel Pharmaceuticals, Inc., priority 2015, dated 2018).
